Measurements: patent US11000033B2, “Ketone or oxime compound, and herbicide” (NISSAN CHEMICAL CORPORATION, priority 2014, dated 2021)

Tests used:
Type in all cases: in vivo
[1] = test system: Abutilon theophrasti; test: Test Example 5: herbicidal effect by foliage application, plastic box (symbol M); details: 320 g/ha, 3 weeks after application
Procedure, shortened: (§1)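 Post-emergence spray; diluvial soil (sterilized), ~1.5 cm seed cover; greenhouse 25–30° C; 14-day-old plants; water-diluted emulsion at predetermined dose; visual score at 3 wk post-treatment.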

[2] = test system: Echinochloa crus-galli var. crus-galli; test: Test Example 5: herbicidal effect by foliage application, plastic box (symbol H); details: 320 g/ha, 3 weeks after application
Procedure, shortened: as §1

[3] = test system: Chenopodium album; test: Test Example 5: herbicidal effect by foliage application, plastic box (symbol O); details: 320 g/ha, 3 weeks after application
Procedure, shortened: as §1

[4] = test system: Stellaria media; test: Test Example 4: herbicidal effect by soil treatment (symbol P); details: application herbicide amount 320 g/ha
Procedure, shortened: (§2)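 Seeds were sown in sterilized diluvial soil, covered with about 1.5 cm of soil, and the soil surface was sprayed with a water-diluted emulsion of the compound at a predetermined rate. Plants grew in a greenhouse at 25° C. to 30° C.; effects were scored visually 3 weeks after application.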

[5] = test system: Monochoria vaginalis; test: Test Example 1: herbicidal activity, application before weed generation in submerged conditions (symbol C); details: application herbicide amount 320 g/ha
Procedure, shortened: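 Mixed weed seeds sown in alluvial soil under 4 cm of water, with rice seedlings at the 2.5-leaf stage added. Same-day treatment: emulsion diluted to a set herbicide amount onto the water. Three weeks at 25–30 °C, then graded on a six-step scale.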

[6] = test system: Apera spica-venti; test: Test Example 4: herbicidal effect by soil treatment (symbol L); details: application herbicide amount 320 g/ha
Procedure, shortened: as §2

[7] = test system: Lolium multiflorum Lam.; test: Test Example 5: herbicidal effect by foliage application, plastic box (symbol K); details: 320 g/ha, 3 weeks after application
Procedure, shortened: as §1

[8] = test system: transplanted rice plant; test: Test Example 1: effect on crop, application before weed generation in submerged conditions (symbol a); details: application herbicide amount 320 g/ha
Procedure, shortened: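 Rice at 2.5 leaf stage transplanted into submerged soil (4 cm depth) sown with three weed species; herbicide applied before weed emergence.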

[9] = test system: Alopecurus myosuroides; test: Test Example 4: herbicidal effect by soil treatment (symbol J); details: application herbicide amount 320 g/ha
Procedure, shortened: as §2

[10] = test system: Avena fatua; test: Test Example 4: herbicidal effect by soil treatment (symbol I); details: application herbicide amount 320 g/ha
Procedure, shortened: as §2

[11] = test system: Amaranthus retroflexus; test: Test Example 5: herbicidal effect by foliage application, plastic box (symbol N); details: 320 g/ha, 3 weeks after application
Procedure, shortened: as §1

[12] = test system: Veronica persica; test: Test Example 4: herbicidal effect by soil treatment (symbol R); details: application herbicide amount 320 g/ha
Procedure, shortened: as §2

[13] = test system: rapeseed; test: Test Example 5: effect on crop by foliage application, plastic box (symbol g); details: 320 g/ha, 3 weeks after application
Procedure, shortened: (§3)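 A greenhouse held between 25° C. and 30° C. was used to grow plants sown spot-wise, beneath ~1.5 cm of soil, in boxes of sterilized diluvial soil.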

[14] = test system: Setaria viridis; test: Test Example 4: herbicidal effect by soil treatment (symbol G); details: application herbicide amount 320 g/ha
Procedure, shortened: as §2

[15] = test system: Stellaria media; test: Test Example 5: herbicidal effect by foliage application, plastic box (symbol P); details: 320 g/ha, 3 weeks after application
Procedure, shortened: as §1

[16] = test system: corn; test: Test Example 5: effect on crop by foliage application, plastic box (symbol c); details: 320 g/ha, 3 weeks after application
Procedure, shortened: as §3

[17] = test system: Galium spurium; test: Test Example 4: herbicidal effect by soil treatment (symbol Q); details: application herbicide amount 320 g/ha
Procedure, shortened: as §2

[18] = test system: Chenopodium album; test: Test Example 4: herbicidal effect by soil treatment (symbol O); details: application herbicide amount 320 g/ha
Procedure, shortened: as §2

[19] = test system: Leptochloa chinensis; test: Test Example 3: herbicidal effect by foliage application, Wagner pot (symbol D); details: application herbicide amount 320 g/ha
Procedure, shortened: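 Seeds sown in alluvial soil kept under 0.1–0.5 cm water, greenhouse 25–30 °C; 14 d growth. Leaves treated by small sprayer with water-diluted emulsion at a predetermined rate. Effect graded by set scale, 3 weeks.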

For `CON=C(C)CC1CC(OC(=O)COc2cccc(C#N)c2)=C(c2c(C)cc(C)cc2C)C1=O` (stereo not drawn) [1-074], the “M: Abutilon theophrasti, herbicidal effect (criteria 0-5)” value [1] was 3 (Herbicidal ratio of 40% or higher and lower than 70%), the “H: Echinochloa crus-galli var. crus-galli, herbicidal effect (criteria 0-5)” value [2] was 5 (Herbicidal ratio of 90% or more (almost completely withered)) and the “O: Chenopodium album, herbicidal effect (criteria 0-5)” value [3] was 2 (Herbicidal ratio of 20% or higher and lower than 40%). For the same compound, the “P (Stellaria media) herbicidal effect grade” value [4] was 0 (Herbicidal ratio of 5% or lower (almost no effect)), the “Herbicidal effect grade, C: Monochoria vaginalis” value (from here on “Herbicidal effect grade, C”) [5] was 4 (Herbicidal ratio of 70% or higher and lower than 90%) and the “L (Apera spica-venti) herbicidal effect grade” value [6] was 5 (Herbicidal ratio of 90% or more (almost completely withered)). The “K: Lolium multiflorum Lam., herbicidal effect (criteria 0-5)” value [7] was 5 (Herbicidal ratio of 90% or more (almost completely withered)), the “Effect grade on crop, a: transplanted rice plant” value (shortened to “Effect grade on crop”) [8] was 5 (Herbicidal ratio of 90% or more (almost completely withered)) and the “J (Alopecurus myosuroides) herbicidal effect grade” value [9] was 5 (Herbicidal ratio of 90% or more (almost completely withered)). For the same compound, the “I (Avena fatua) herbicidal effect grade” value [10] was 4 (Herbicidal ratio of 70% or higher and lower than 90%), the “N: Amaranthus retroflexus, herbicidal effect (criteria 0-5)” value [11] was 0 (Herbicidal ratio of 5% or lower (almost no effect)) and the “R (Veronica persica) herbicidal effect grade” value [12] was 0 (Herbicidal ratio of 5% or lower (almost no effect)). The “g: rapeseed, effect on crop (criteria 0-5)” value [13] was 4 (Herbicidal ratio of 70% or higher and lower than 90%), the “G (Setaria viridis) herbicidal effect grade” value [14] was 5 (Herbicidal ratio of 90% or more (almost completely withered)) and the “P: Stellaria media, herbicidal effect (criteria 0-5)” value [15] was 1 (Herbicidal ratio of 5% or higher and lower than 20%). For the same compound, the “c: corn, effect on crop (criteria 0-5)” value [16] was 5 (Herbicidal ratio of 90% or more (almost completely withered)), the “Q (Galium spurium) herbicidal effect grade” value [17] was 0 (Herbicidal ratio of 5% or lower (almost no effect)) and the “O (Chenopodium album) herbicidal effect grade” value [18] was 0 (Herbicidal ratio of 5% or lower (almost no effect)). The “herbicidal effect on D (Leptochloa chinensis), grade 0-5” value [19] was 5 (Herbicidal ratio of 90% or more (almost completely withered)).
For `CON=C(CC1CC(O)=C(c2c(C)cc(C)cc2C)C1=O)c1ccccc1` (stereo not drawn) [1-047], the “M: Abutilon theophrasti, herbicidal effect grade” value [1] was 0 (Herbicidal ratio of 5% or lower (almost no effect)), the “H: Echinochloa crus-galli var. crus-galli, herbicidal effect grade” value [2] was 3 (Herbicidal ratio of 40% or higher and lower than 70%) and the “O: Chenopodium album, herbicidal effect grade” value [3] was 0 (Herbicidal ratio of 5% or lower (almost no effect)). For the same compound, the “P (Stellaria media) herbicidal effect grade” value [4] was 0 (Herbicidal ratio of 5% or lower (almost no effect)), the “Herbicidal effect grade, C” value [5] was 0 (Herbicidal ratio of 5% or lower (almost no effect)) and the “L (Apera spica-venti) herbicidal effect grade” value [6] was 0 (Herbicidal ratio of 5% or lower (almost no effect)). The “K: Lolium multiflorum Lam., herbicidal effect grade” value [7] was 4 (Herbicidal ratio of 70% or higher and lower than 90%), the “Effect grade on crop” value [8] was 1 (Herbicidal ratio of 5% or higher and lower than 20%) and the “J (Alopecurus myosuroides) herbicidal effect grade” value [9] was 0 (Herbicidal ratio of 5% or lower (almost no effect)). The “I (Avena fatua) herbicidal effect grade” value [10] was 0 (Herbicidal ratio of 5% or lower (almost no effect)), the “N: Amaranthus retroflexus, herbicidal effect grade” value [11] was 0 (Herbicidal ratio of 5% or lower (almost no effect)) and the “R (Veronica persica) herbicidal effect grade” value [12] was 0 (Herbicidal ratio of 5% or lower (almost no effect)). The “g: rapeseed, effect on crop grade” value [13] was 3 (Herbicidal ratio of 40% or higher and lower than 70%), the “G (Setaria viridis) herbicidal effect grade” value [14] was 0 (Herbicidal ratio of 5% or lower (almost no effect)) and the “P: Stellaria media, herbicidal effect grade” value [15] was 0 (Herbicidal ratio of 5% or lower (almost no effect)). For the same compound, the “c: corn, effect on crop grade” value [16] was 0 (Herbicidal ratio of 5% or lower (almost no effect)), the “Q (Galium spurium) herbicidal effect grade” value [17] was 0 (Herbicidal ratio of 5% or lower (almost no effect)) and the “O (Chenopodium album) herbicidal effect grade” value [18] was 0 (Herbicidal ratio of 5% or lower (almost no effect)). For the same compound, the “herbicidal effect on D (Leptochloa chinensis), grade 0-5” value [19] was 3 (Herbicidal ratio of 40% or higher and lower than 70%).
With `CC#Cc1cc(C)c(C2=C(OC(=O)COc3ccccc3)CC(CC(=NOC)C(C)C)C2=O)c(C)c1` (stereo not drawn) [9-003] the “M: Abutilon theophrasti, herbicidal effect grade” value [1] was 4 (Herbicidal ratio of 70% or higher and lower than 90%), the “H: Echinochloa crus-galli var. crus-galli, herbicidal effect grade” value [2] was 5 (Herbicidal ratio of 90% or more (almost completely withered)) and the “O: Chenopodium album, herbicidal effect grade” value [3] was 3 (Herbicidal ratio of 40% or higher and lower than 70%). The “Herbicidal effect grade, P: Stellaria media” value [4] was 0 (Herbicidal ratio of 5% or lower (almost no effect)), the “Herbicidal effect grade, C” value [5] was 1 (Herbicidal ratio of 5% or higher and lower than 20%) and the “Herbicidal effect grade, L: Apera spica-venti” value [6] was 5 (Herbicidal ratio of 90% or more (almost completely withered)). For the same compound, the “K: Lolium multiflorum Lam., herbicidal effect grade” value [7] was 5 (Herbicidal ratio of 90% or more (almost completely withered)), the “Effect grade on crop” value [8] was 5 (Herbicidal ratio of 90% or more (almost completely withered)) and the “Herbicidal effect grade, J: Alopecurus myosuroides” value [9] was 5 (Herbicidal ratio of 90% or more (almost completely withered)). The “Herbicidal effect grade, I: Avena fatua” value [10] was 3 (Herbicidal ratio of 40% or higher and lower than 70%), the “N: Amaranthus retroflexus, herbicidal effect grade” value [11] was 0 (Herbicidal ratio of 5% or lower (almost no effect)) and the “Herbicidal effect grade, R: Veronica persica” value [12] was 0 (Herbicidal ratio of 5% or lower (almost no effect)). For the same compound, the “g: rapeseed, effect on crop grade” value [13] was 4 (Herbicidal ratio of 70% or higher and lower than 90%), the “Herbicidal effect grade, G: Setaria viridis” value [14] was 5 (Herbicidal ratio of 90% or more (almost completely withered)) and the “P: Stellaria media, herbicidal effect grade” value [15] was 3 (Herbicidal ratio of 40% or higher and lower than 70%). The “c: corn, effect on crop grade” value [16] was 5 (Herbicidal ratio of 90% or more (almost completely withered)), the “Herbicidal effect grade, Q: Galium spurium” value [17] was 0 (Herbicidal ratio of 5% or lower (almost no effect)) and the “Herbicidal effect grade, O: Chenopodium album” value [18] was 0 (Herbicidal ratio of 5% or lower (almost no effect)). For the same compound, the “D (Leptochloa chinensis) herbicidal effect grade” value ([19]; Table 24) was 5 (Herbicidal ratio of 90% or more (almost completely withered)).
